PubChem BioAssay (NCI)
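Grown in 96-well plates, cells were treated for 48 hours with each compound at five concentrations. Insufficient inhibition: endpoint recorded as highest concentration tested. At the GI50, growth is halved. TGI: concentration producing complete growth inhibition.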

Columns and labels:
Test in all cases: DTP human tumour cell line panel, 48 h
[1] = tested on: UACC-257 melanoma
[2] = tested on: TK-10 renal
[3] = tested on: SW-620 colon
[4] = tested on: SF-539 CNS
[5] = tested on: A549 NSCLC
[6] = tested on: UACC-62 melanoma
[7] = tested on: T-47D breast
[8] = tested on: SNB-75 CNS
[9] = tested on: IGROV1 ovarian
[10] = tested on: HS 578T breast
[11] = tested on: OVCAR-8 ovarian
[12] = tested on: NCI-H23 lung
[13] = tested on: ACHN renal
[14] = tested on: HCT-116 colon
[15] = tested on: CCRF-CEM leukemia
[16] = tested on: MDA-MB-231 breast
[17] = tested on: SK-MEL-2 melanoma
[18] = tested on: LOX IMVI melanoma
[19] = tested on: U251 CNS
[20] = tested on: EKVX NSCLC
[21] = tested on: M14 melanoma
[22] = tested on: UO-31 renal
[23] = tested on: COLO 205 colon
[24] = tested on: SNB-19 CNS
[25] = tested on: NCI/ADR-RES ovarian
[26] = tested on: SR leukemia
[27] = tested on: K-562 leukemia
[28] = tested on: HOP-92 NSCLC
[29] = tested on: HT29 colon
[30] = tested on: 786-0 renal
[31] = tested on: SK-MEL-28 melanoma
[32] = tested on: NCI-H522 lung
[33] = tested on: HCC-2998 colon
[34] = tested on: A498 renal
[35] = tested on: MCF7 breast
[36] = tested on: HCT-15 colon
[37] = tested on: SF-268 CNS
[38] = tested on: PC-3 prostate
[39] = tested on: BT-549 breast
[40] = tested on: OVCAR-3 ovarian
[41] = tested on: SN12C renal
[42] = tested on: NCI-H460 lung
[43] = tested on: MDA-MB-435
[44] = tested on: SF-295 CNS
[45] = tested on: RXF 393 renal
[46] = tested on: OVCAR-5 ovarian
[47] = tested on: CAKI-1 renal
[48] = tested on: HL-60(TB) leukemia
[49] = tested on: SK-OV-3 ovarian
[50] = tested on: NCI-H226 lung
[51] = tested on: DU-145 prostate
[52] = tested on: HOP-62 NSCLC
[53] = tested on: SK-MEL-5 melanoma
[54] = tested on: MOLT-4 leukemia
[55] = tested on: MALME-3M melanoma
[56] = tested on: OVCAR-4 ovarian
[57] = tested on: RPMI-8226 leukemia
[58] = tested on: KM12 colon

`CCOC(=O)/C(C1=CC(=O)C(=O)c2ccccc21)=C(/C)NCc1ccccc1` gave a GI50 [1] of 2.56 µM, a TGI [1] of 10.9 µM and a GI50 [2] of 1.72 µM. It also gave a TGI [2] of 3.51 µM, a GI50 [3] of 1.64 µM and a TGI [3] of 3.3 µM. The GI50 [4] was 1.06 µM, the TGI [4] was 2.65 µM and the GI50 [5] was 2.4 µM. For the same molecule, the TGI [5] was 6.42 µM, the GI50 [6] was 2.02 µM and the TGI [6] was 3.91 µM. For the same molecule, the GI50 [7] was 2.27 µM, the TGI [7] was > 100 µM and the GI50 [8] was 3.11 µM. It also gave a TGI [8] of 55.5 µM, a GI50 [9] of 1.05 µM and a GI50 [10] of 2.54 µM. The TGI [10] was 6.96 µM, the GI50 [11] was 3.69 µM and the TGI [11] was 9.5 µM. For the same molecule, the GI50 [12] was 1.85 µM, the TGI [12] was 3.71 µM and the GI50 [13] was 2.28 µM. For the same molecule, the TGI [13] was 4.75 µM, the GI50 [14] was 1.52 µM and the TGI [14] was 2.85 µM. For the same molecule, the GI50 [15] was 0.0144 µM, the TGI [15] was 0.0649 µM and the GI50 [16] was 1.37 µM. For the same molecule, the TGI [16] was 3.28 µM, the GI50 [17] was 5.87 µM and the TGI [17] was > 100 µM. It also gave a GI50 [18] of 1.15 µM, a TGI [18] of 2.36 µM and a GI50 [19] of 0.606 µM. The GI50 [20] was 2.33 µM, the TGI [20] was 5.06 µM and the GI50 [21] was 1.71 µM. The TGI [21] was 3.17 µM, the GI50 [22] was 3.35 µM and the TGI [22] was > 100 µM. For the same molecule, the GI50 [23] was 2.01 µM, the TGI [23] was 4.54 µM and the GI50 [24] was 3.24 µM. The TGI [24] was > 100 µM, the GI50 [25] was 2.02 µM and the TGI [25] was 5.08 µM. The GI50 [26] was 0.127 µM, the TGI [26] was 0.274 µM and the GI50 [27] was 1.3 µM. The TGI [27] was 3.24 µM, the GI50 [28] was 1.4 µM and the TGI [28] was 3.52 µM. For the same molecule, the GI50 [29] was 4.36 µM, the TGI [29] was > 100 µM and the GI50 [30] was 1.29 µM. It also gave a TGI [30] of 2.88 µM, a GI50 [31] of 3.02 µM and a TGI [31] of 7.32 µM. The GI50 [32] was 1.22 µM, the GI50 [33] was 2.85 µM and the TGI [33] was 8.2 µM. For the same molecule, the GI50 [34] was 4.77 µM, the TGI [34] was 10.4 µM and the GI50 [35] was 2.05 µM. It also gave a TGI [35] of 4.75 µM, a GI50 [36] of 1.75 µM and a TGI [36] of 3.6 µM. The GI50 [37] was 1.64 µM, the TGI [37] was 3.43 µM and the GI50 [38] was 1.23 µM. The TGI [38] was 2.48 µM, the GI50 [39] was 3.29 µM and the TGI [39] was 6.18 µM. It also gave a GI50 [40] of 0.218 µM, a TGI [40] of 0.935 µM and a GI50 [41] of 2.12 µM. For the same molecule, the TGI [41] was 5.09 µM, the GI50 [42] was 3.23 µM and the TGI [42] was 12 µM. For the same molecule, the GI50 [43] was 0.226 µM, the TGI [43] was 0.476 µM and the GI50 [44] was 1.76 µM. For the same molecule, the TGI [44] was 3.68 µM, the GI50 [45] was 0.186 µM and the TGI [45] was 1.73 µM. For the same molecule, the GI50 [46] was 2.43 µM, the TGI [46] was 6.69 µM and the GI50 [47] was 1.61 µM. For the same molecule, the TGI [47] was 3.58 µM, the GI50 [48] was 0.453 µM and the TGI [48] was 2.25 µM. For the same molecule, the GI50 [49] was 2.17 µM, the TGI [49] was 4.88 µM and the GI50 [50] was 2.62 µM. It also gave a TGI [50] of 6.38 µM, a GI50 [51] of 1.79 µM and a TGI [51] of 3.32 µM. The GI50 [52] was 1.56 µM, the TGI [52] was 3.44 µM and the GI50 [53] was 1.78 µM. For the same molecule, the TGI [53] was 3.38 µM, the GI50 [54] was 0.182 µM and the TGI [54] was 0.434 µM. The GI50 [55] was 1.66 µM, the TGI [55] was 3.57 µM and the GI50 [56] was 3.12 µM. For the same molecule, the TGI [56] was 56.7 µM, the GI50 [57] was 0.184 µM and the TGI [57] was 0.432 µM.
For `CCCCc1cc(O)ccc1O`, the GI50 [1] was 78.2 µM, the TGI [1] was > 100 µM and the GI50 [2] was 17.9 µM. For the same molecule, the TGI [2] was 42.8 µM, the GI50 [3] was 33.8 µM and the TGI [3] was > 100 µM. The GI50 [4] was 11.5 µM, the TGI [4] was 45.4 µM and the GI50 [5] was 89.2 µM. The TGI [5] was > 100 µM, the GI50 [6] was 27.7 µM and the TGI [6] was > 100 µM. The GI50 [7] was 15.9 µM, the TGI [7] was 67.5 µM and the GI50 [8] was 14.1 µM. The TGI [8] was > 100 µM, the GI50 [9] was 32.3 µM and the TGI [9] was > 100 µM. For the same molecule, the GI50 [10] was 18.7 µM, the TGI [10] was > 100 µM and the GI50 [11] was 28.2 µM. For the same molecule, the TGI [11] was > 100 µM, the GI50 [12] was 67.1 µM and the TGI [12] was > 100 µM. For the same molecule, the GI50 [13] was 15.6 µM, the TGI [13] was 28.9 µM and the GI50 [14] was 15.5 µM. It also gave a TGI [14] of 28.9 µM, a GI50 [15] of 2.79 µM and a TGI [15] of 60.6 µM. The GI50 [58] was 16.4 µM, the TGI [58] was > 100 µM and the GI50 [16] was 15.1 µM. The TGI [16] was > 100 µM, the GI50 [17] was 35.8 µM and the TGI [17] was > 100 µM. It also gave a GI50 [18] of 14.6 µM, a TGI [18] of 63.6 µM and a GI50 [19] of 37.4 µM. The TGI [19] was > 100 µM, the GI50 [20] was 41.9 µM and the TGI [20] was > 100 µM. For the same molecule, the GI50 [22] was 10.8 µM, the TGI [22] was 28.1 µM and the GI50 [23] was 74.6 µM. The TGI [23] was > 100 µM, the GI50 [24] was 78.5 µM and the TGI [24] was > 100 µM. The GI50 [25] was 23.2 µM, the TGI [25] was > 100 µM and the GI50 [26] was 8.26 µM. The TGI [26] was > 100 µM, the GI50 [27] was 10.3 µM and the TGI [27] was > 100 µM. For the same molecule, the GI50 [28] was 26.1 µM, the TGI [28] was > 100 µM and the GI50 [29] was 43.1 µM. The TGI [29] was > 100 µM, the GI50 [30] was 12.2 µM and the TGI [30] was > 100 µM. The GI50 [31] was 78.7 µM, the TGI [31] was > 100 µM and the GI50 [32] was 2.28 µM. For the same molecule, the TGI [32] was 6.97 µM, the GI50 [33] was 70.8 µM and the TGI [33] was > 100 µM. For the same molecule, the GI50 [34] was > 100 µM, the TGI [34] was > 100 µM and the GI50 [35] was 40.4 µM. For the same molecule, the TGI [35] was > 100 µM, the GI50 [36] was 28.2 µM and the TGI [36] was > 100 µM. The GI50 [37] was 15.5 µM, the TGI [37] was > 100 µM and the GI50 [38] was 10.5 µM. The TGI [38] was > 100 µM, the GI50 [39] was 6.12 µM and the TGI [39] was > 100 µM. It also gave a GI50 [40] of 7.84 µM, a TGI [40] of 21.8 µM and a GI50 [41] of 18.7 µM. For the same molecule, the TGI [41] was > 100 µM, the GI50 [42] was 39 µM and the TGI [42] was > 100 µM. It also gave a GI50 [43] of 22 µM, a TGI [43] of 62.1 µM and a GI50 [44] of 42.7 µM. The TGI [44] was > 100 µM, the GI50 [45] was 16.7 µM and the TGI [45] was > 100 µM. For the same molecule, the GI50 [46] was 30 µM, the TGI [46] was > 100 µM and the GI50 [47] was 33 µM. The TGI [47] was > 100 µM, the GI50 [48] was 2.56 µM and the TGI [48] was 6.77 µM. For the same molecule, the GI50 [49] was 64.5 µM, the TGI [49] was > 100 µM and the GI50 [50] was 48.8 µM. The TGI [50] was > 100 µM, the GI50 [51] was 80.7 µM and the TGI [51] was > 100 µM. The GI50 [52] was 53.7 µM, the TGI [52] was > 100 µM and the GI50 [53] was 58.3 µM. For the same molecule, the TGI [53] was > 100 µM, the GI50 [54] was 5.07 µM and the TGI [54] was > 100 µM. The GI50 [55] was 21.6 µM, the TGI [55] was 65.4 µM and the GI50 [56] was 13.1 µM. The TGI [56] was 26.3 µM, the GI50 [57] was 3.13 µM and the TGI [57] was 26.6 µM.
